This note sets out measurements from PubChem BioAssay AID2305 (GlaxoSmithKline (GSK), 2010).

pIC50: −log10 of the molar value. Where “and” joins values, the source holds several entries; their conditions need not be identical. Identical values can stand only once.

The assay deals with P. falciparum 3D7 growth, pLDH absorbance. Kind of assay: blood-stage malaria parasite growth potency – strain 3D7, dose response (AID 2305).
As for `CNCCc1c(O)ccc2ccccc12`, the pIC50 was 6.10.
`Clc1cnc2ccc3c(c2c1CCN1CCC(NCc2cc4c(cn2)OCCO4)CC1)OCCO3` had a negative-log IC50 (pIC50) of 6.14.
`OC(CNCc1ccccc1OCc1ccccc1)c1cccc(Cl)c1` (configuration not stated) showed a pIC50 of 6.66.
`CC(C)CNCc1cccc(-c2cccc(CN(CCCN3CCN(C)CC3)C(=O)NC3CCCCC3)c2)c1` showed a pIC50 of 6.12.
As for `COc1ccc(CNCc2cccc(-c3ccc(-c4nc5ccccc5[nH]4)s3)c2)cc1`, the figure is 6.09.
As for `NC(Cc1ccc(Cl)cc1)=NCCN1CCCCCC1`, the figure is 6.13; as for `Clc1ccccc1CN1CCC(NCc2cccc(-n3ccnc3)c2)CC1`, 6.10; as for `CN1CCC(C(=O)Nc2cccc(-c3ccc(-c4nc5ccc(C(F)(F)F)cc5[nH]4)s3)c2)CC1`, 6.14.
As for `CC(C)(C)c1cc(C(=O)N2CCN(c3nccnc3C#N)CC2)n(Cc2ccccc2)n1`, the figure is 6.12; as for `Nc1cccc(CNCc2ccc(-c3ccc(-c4nc5ccc(F)cc5[nH]4)s3)cc2)c1`, 6.00; as for `Cn1c(/C=C/C(=O)NC2CCC(CCN3CCc4ccc(C#N)cc4CC3)CC2)cc2ccccc21` (configuration not stated), 6.14.
Compound `O=C(Nc1cccc(Cl)c1Cl)NC1CCN(Cc2cccc(O)c2)CC1` showed a pIC50 of 6.10.
To `O=C(Cc1cc(F)cc(F)c1)NC1CCN(c2ccnc3cc(Cl)ccc23)C1` (configuration not stated) belongs 6.60.
As for `O=C(Nc1cccc(CN2CCCN(Cc3cccnc3)CC2)c1)c1ccc(Cl)c(Cl)c1`, the figure is 6.03; as for `CC(C)(C)OC(=O)NCc1ccc(Nc2nnc(-c3ccc(OCC(=O)NCc4cc(C(F)(F)F)cc(C(F)(F)F)c4)c([N+](=O)[O-])c3)o2)cc1`, 6.34.
As for `COc1cccc(CN2CCCN(Cc3cccc(NC(=O)c4cc5ccccc5s4)c3)CC2)c1`, the figure is 6.00; as for `CC[C@H](C)CNC(=O)c1ccnc(-c2cccc(CN3CCC(N4CCCC4)CC3)c2)c1`, 6.07; as for `COc1cc(NC2=NS(=O)(=O)c3cc(Cl)ccc3N2C)cc(OC)c1OC`, 6.38.
The compound `Cc1cccc2[nH]c(-c3cccc(-c4cccc(CNCCCN5CCCC5=O)c4)c3)nc12` showed a pIC50 of 6.13.
As for `COCCCNc1sc(S(=O)(=O)c2ccccc2)nc1S(=O)(=O)c1ccc(C)cc1`, the pIC50 was 6.10.
As for `CC(Sc1nc2sccc2c(=O)n1C)C(=O)Nc1ccc2c(c1)OCO2` (configuration not stated), the figure is 5.98.
To `Cc1ccc(S(=O)(=O)n2nccc2-c2c(-c3ccc(Cl)cc3)noc2C)cc1` belongs 6.09; to `CCOC(=O)CC[C@@H](NC(=O)c1ccc(NCc2ccc3ccc4nc(C)[nH]c(=O)c4c3c2)cc1F)C(=O)N[C@@H](Cc1c[nH]c2ccccc12)C(=O)OCC`, 5.99.
As for `COc1ccc(-c2cccc(NC(=O)c3ccc(C#N)cc3)c2)cc1CN1CCCN(C)CC1`, the figure is 6.12.
The compound `COc1ccc2c(NN=Cc3ccccc3F)ccnc2c1` had a pIC50 of 6.68.
As for `COc1cc(-c2nc(-c3ccccc3)c(-c3ccccc3)[nH]2)ccc1OCCN(C)C`, the figure is 6.52.
As for `Cn1cncc1CCN(Cc1ccc(-c2ccc(C(F)(F)F)cc2)cc1)C(=O)Cn1c(SCc2cccc(F)c2F)cc(=O)c2ccccc21`, the figure is 6.00; as for `Cc1[nH]c2ccc(NS(C)(=O)=O)cc2c1C1CCN(CCC2CCN(C(=O)/C=C/c3ccc(Cl)c(Cl)c3)CC2)CC1`, 6.08; as for `Cc1cc(N2CCCCC2)nc2ccc(NC(=O)c3cc(=O)c4ccccc4o3)cc12`, 6.14.
Turning to `O=C(O)C[C@H](NC(=O)CCCNC(=O)c1cccc(-c2ccc(Cl)c(Cl)c2)c1)C(=O)O`, the pIC50 is 6.06.
As for `CCOc1cc(Br)c(C(C)NC(=O)c2ccccc2)cc1OCC` (configuration not stated), the figure is 6.07.
To `CCCCN(CCCC)CCCCNc1c2ccc(Cl)cc2nc2ccc(OC)cc12` belongs 6.74; to `COc1ccc(CN(C)CCCCc2ccc(NC(=O)COc3cccc4sc5ccccc5c(=O)c34)cc2)cc1OC`, 6.09.
To `O=C(NC1CCCCN(Cc2ccccc2O)C1)c1ccc(Cl)c(Cl)c1` (configuration not stated) belongs 6.12; to `Cc1cc(Oc2cc(NC(=O)c3sc4ncn(Cc5ccccc5F)c(=O)c4c3C)cc([N+](=O)[O-])c2)ccc1Cl`, 5.94; to `Cc1cc(NCCC(=O)Nc2ccccc2)nc(NCc2ccccc2C)n1`, 6.18.
As to `O=C(Cn1c(CCc2cccc(F)c2F)nc(=O)c2ccccc21)N(Cc1ccc(-c2ccc(C(F)(F)F)cc2)cc1)C1CCN(C2=NCCS2)CC1`, the pIC50 is 5.88.
As to `COc1cccc(Cc2cnc3nc(N)nc(N)c3c2C)c1`, the pIC50 was 6.77.
As for `CS(=O)(=O)N1CC2(CCN(CCC(NC(=O)NCc3ccc(Cl)c(Cl)c3)c3ccc(Cl)c(Cl)c3)CC2)c2ccccc21` (configuration not stated), the figure is 6.10.
As for `CC(C)Cc1c(O)nc(SCCN2CCOCC2)[nH]c1=O`, the figure is 5.90; as for `c1ccc2[nH]c(-c3ccc(-c4ccc(CNC5CC5)cc4)s3)nc2c1`, 5.98; as for `Cc1cc(NC(=O)c2cccs2)ccc1OC1CCN(Cc2ccc(F)cc2)CC1`, 6.32.
`COc1ccc2nccc([C@@H](O)CN3CCC(NCc4cc5ccc(C#N)cc5[nH]4)CC3)c2c1` had a pIC50 of 7.00.
As for `CS(=O)(=O)c1ccccc1CNC(=O)c1ccc(-c2ccc(-c3nc4ccc(C(F)(F)F)cc4[nH]3)s2)cc1`, the figure is 6.62.
On to `O=C(NCCCCCN1CCC(c2c[nH]c3ccccc23)CC1)c1ccc(-c2cccnc2)cc1`, for which the pIC50 was 5.99.
As for `COc1cc(CN2CCC(NC(=O)[C@H](Cc3ccccc3)NC(=O)Nc3ccc(Oc4ccccc4)cc3)C2)ccc1O` (some centres not stated), the figure is 6.09; as for `CC(=O)Nc1ccc(-c2nc3ccc(-c4nc5ccc(NC(C)=O)cc5[nH]4)cc3[nH]2)cc1`, 6.62; as for `C[C@H](NC(=O)c1c(OC2CN(C(c3ccccc3)c3ccccc3)C2)c(-c2ccccc2)nc2ccccc12)C1CCCCC1`, 6.01.
`COc1cccc(Nc2nc(NCCO)c3ccccc3n2)c1`: the pIC50 is 6.82.
To `O=C(Nc1ccc(OC2CCN(Cc3ccc(F)cc3)CC2)c(Cl)c1)c1ccc(F)cc1` belongs 6.72; to `COc1ccc(-c2ccc(NC(=O)c3ccc(C#N)cc3)cc2)cc1CN(C)CCN(C)C`, 6.18; to `Cc1cc(CN2CC[C@H](NC(=O)c3ccc(Cl)c(Cl)c3)C2)ccc1OC1CCN(Cc2ccccc2)CC1`, 6.04.
In the case of `CN1CCCc2ccc(NC(=O)Nc3ccc(-c4ccccc4)cc3)cc2C1`, the pIC50 was 6.42.
As for `CCc1cc(NC(=O)Nc2ccnc3ccccc23)ccc1OC`, the figure is 6.85; as for `COc1ccc(-c2cccc(NC(=O)c3cccc(C#N)c3)c2)cc1CN1CCC(O)CC1`, 6.00.
As for `O=C(Nc1cccc(CN2CCCN(Cc3ccc(F)cc3)CC2)c1)c1ccc(Cl)c(Cl)c1`, the pIC50 is 6.02.
In turn, `O=C(COc1ccc(C(=O)c2ccccc2)cc1)Nc1nccs1` gave a pIC50 of 6.05.
To `CC(C)N1CCN(c2ccc(OCCCN3CCN(c4cccc(Cl)c4Cl)CC3)c(C(F)(F)F)c2)CC1` belongs 6.09; to `FC(F)(F)c1ccc2nc(-c3cccc(-c4cccc(CN5CCN(c6ccncc6)CC5)c4)c3)[nH]c2c1`, 6.80; to `CCN(CC)CCCC(C)Nc1c(-c2ccc(Br)cc2)cnc2ccccc12` (configuration not stated), 6.15.
As for `CCc1nc(N)nc(N)c1-c1ccc(Cl)cc1`, the pIC50 was 7.22 and 7.52.
As for `CC(C)n1ncc2c(C(=O)N3CCCc4ccccc43)cc(-c3ccccc3)nc21`, the figure is 6.22.

As usually defined, the pIC50 is −log10 of the IC50, conventionally taken in molar units. Read a low pIC50 as a high IC50.
